Measured values taken from patent EP0279787A1, “Pharmaceutical compositions with synergistic antisecretory action for the healing of gastroduodenal ulcer” (ISTITUTO DE ANGELI S.p.A., priority 1987, dated 1988).

Tested on: gastric acid secretion
Test: Lumen perfused stomach of the anaesthetized rat: inhibition of acid secretion evoked by histamine plus acetylcholine
Assay type: in vivo
Settings: drug alone
Protocol: Experiments in lumen perfused stomach of the anaesthetized rat were performed, evoking acid secretion by histamin (0.5 mg/kg/h i.v.) and acetylcholine (0.5 mg/kg/h i.v.) given in combination. These two combined secretagogues evoked a response which was about 80% of the maximal effect achievable by maximally effective dose of either acetylcholine (8 mg/kg/h i.v.) or histamine (8 mg/kg/h i.v.) alone.
As soon as a steady level of acid output was reached, a combination of mifentidine/pirenzepine (1:10), or of DA-5047/pirenzepine (1:10) under the form of the compositions of the present invention, or mifentidine, DA-5047 and pirenzepine alone were administered intravenously. Each dose was administered to 8 animals.
The obtained data were submitted to linear regression analysis in order to calculate the dose inhibiting 50% (ED₅₀) the response of which is reported in the following table II: […]

Row | SMILES | Percent inhibition (dose 20 µg/kg i.v.) [%] | Percent inhibition (dose 40 µg/kg i.v.) [%] | Percent inhibition (dose 80 µg/kg i.v.) [%] | Percent inhibition (dose 200 µg/kg i.v.) [%] | Percent inhibition (dose 400 µg/kg i.v.) [%] | Percent inhibition (dose 800 µg/kg i.v.) [%]
1 | Cc1nc(-c2ccc(N=CNC(C)C)cc2)c[nH]1 [DA-5047, N-isopropyl-Nʹ-[4-(2- -methyl-imidazol-4-yl)phenyl]-formamidine] | 21 | 34 | 52 |  |  | 
2 | CC(C)NC=Nc1ccc(-c2c[nH]cn2)cc1 [Mifentidine, N-isopropyl-Nʹ-[4-(imidazol-4-yl)phenyl]-formamidines] | 20 | 36 | 58 |  |  | 
3 | CN1CCN(CC(=O)N2c3ccccc3C(=O)Nc3cccnc32)CC1 [Pirenzepine, reference compound] |  |  |  | 28 | 46 | 62
